Results from patent EP3290412A1, “HIV-1 NUCLEOCAPSID INHIBITORS” (Università degli Studi di Siena, priority 2016, dated 2018).

How the values were obtained:
[1] = system: ARP clone 12231 (NNRTI); assay: BiCycle assay, resistant viral strain; assay type: cell-based, HIV-1; conditions: IC50 resistant strain / IC50 wild type NL4-3, BiCycle Assay
Protocol: (§1) BiCycle Assay is cell based assay allowing the evaluation of the antiviral activity of HIV-1 inhibitors on the whole replication cycle of HIV-1. The assay consists in a first round of infection of the T-cell line MT-2 followed by infection of TZM-bl cells. MT-2 cells were seeded at a concentration of 50,000 cells/well in a 96-well plate and infected with the HIV-1 reference strain NL4-3 in presence of five-fold dilutions of the investigational compounds. After 72 hours, 50 µl of supernatant from each well, containing the virus produced in the first round of infection, were used to infect TZM-bl cells seeded in a 96-plate well at a concentration of 30,000 cells/well. Two days later, cells were lysed adding 40 µl of Glo Lysis Buffer (Promega) to each well for 5 minutes, then 40 µl of Brighy-Glo Luciferase Reagent (Promega) were added to each well for relative luminescence units (RLU) counting using Glo-Max Multi Detection System (Promega). RLU values from each well were elaborated using the GraphPad v5.0 software to calculate the IC50 of each compound.
(§2) The antiviral activity of some of the compounds listed in Table 3 was further evaluated determining the IC50 with viruses carrying resistant mutations that reduce the susceptibility to drugs currently employed in clinical practice to treat HIV infection. The resistant viruses were obtained through the NIH AIDS Reagent Program (www.aidsreagent.org) and have been already characterized by the Phenosense Assay (Monogram Biosciences), considered as the reference assay for phenotypic investigation of HIV drug resistance due to its large application in clinical trials.
(§3) IC50 values of resistant viral strains were determined by using the BiCycle Assay as previously described. The results of the analysis are summarized in Table 6, where fold change values are calculated as the ratio between the IC50 values of resistant HIV-1 strains and the IC50 value of the wild type reference HIV-1 strain NL4-3. Table 6. Fold change values of resistant viral strains

[2] = system: ARP clone 11845 (INI); assay: BiCycle assay, resistant viral strain; assay type: cell-based, HIV-1; conditions: IC50 resistant strain / IC50 wild type NL4-3, BiCycle Assay
Protocol: as §1, §2, §3

[3] = system: ARP clone 12229 (NNRTI); assay: BiCycle assay, resistant viral strain; assay type: cell-based, HIV-1; conditions: IC50 resistant strain / IC50 wild type NL4-3, BiCycle Assay
Protocol: as §1, §2, §3

[4] = system: ARP clone 7400 (NRTI); assay: BiCycle assay, resistant viral strain; assay type: cell-based, HIV-1; conditions: IC50 resistant strain / IC50 wild type NL4-3, BiCycle Assay
Protocol: as §1, §2, §3

[5] = system: ARP clone 12465 (PI); assay: BiCycle assay, resistant viral strain; assay type: cell-based, HIV-1; conditions: IC50 resistant strain / IC50 wild type NL4-3, BiCycle Assay
Protocol: as §1, §2, §3

[6] = system: ARP clone 11808 (PI); assay: BiCycle assay, resistant viral strain; assay type: cell-based, HIV-1; conditions: IC50 resistant strain / IC50 wild type NL4-3, BiCycle Assay
Protocol: as §1, §2, §3

[7] = system: ARP clone 11842 (INI); assay: BiCycle assay, resistant viral strain; assay type: cell-based, HIV-1; conditions: IC50 resistant strain / IC50 wild type NL4-3, BiCycle Assay
Protocol: as §1, §2, §3

[8] = system: ARP clone 7401 (NRTI); assay: BiCycle assay, resistant viral strain; assay type: cell-based, HIV-1; conditions: IC50 resistant strain / IC50 wild type NL4-3, BiCycle Assay
Protocol: as §1, §2, §3

[9] = system: HIV-DNA 2-LTR circles; assay: Quantification of 2-LTR products in infected MT-2 cells (real time PCR); assay type: cell-based, HIV-1; conditions: for 2-LTR/HIV-DNA ratio drug vs no-drug: NL4-3 M.O.I. 0.05, 24 hours, drug 28 1000 nM, 31 3000 nM, 23 5000 nM, Raltegravir 1000 nM
Description: During the replication cycle of HIV, several forms of episomic HIV-DNA can be found in the nucleous as a result of abortive integration events in the genome of the cells. Unintegrated HIV-DNA forms such 2-LTR circles are considered as a marker of ongoing replication and can be easily detected and quantified through real time PCR systems. […] Therefore, the quantification of 2-LTR circles can be used as an indirect method to test the blockade of the integration step by a candidate or licensed integrase inhibitors (Reigadas S. et al, J. Antimicrob. Chemother. 2010; 65: 434-437).
Since NCp7 partecipates to several steps of HIV replication including integration, it was developed a cell based assay aimed at the quantification of 2-LTR circles in infected cells cultured in presence of inhibitory concentrations of candidate NCp7 inhibitors. In each culture 3x10^6 MT-2 cells were infected with HIV-1 reference strain NL4-3 at M.O.I. 0.05 in presence of investigational NCp7 inhibitors 23, 31, 28. A culture with the HIV-1 Integrase inhibitor Raltegravir™ was prepared as a reference for the inhibition of integration, while an infected culture without drugs (named "no-drug") was used to compare the amount of 2-LTR in the different cultures. Table 7 indicates the concentration of drugs used in each culture in comparison to the values of EC50 (calculated through the BiCycle Assay) and the values of TD50. Table 7. Concentration of drugs used [c] in comparison to the values of EC50 (calculated through the BiCycle Assay) and the values of TD50.
Cultures were incubated at 37°C and 5% CO2 for 24 hours, then cells were harvested and total DNA was extracted using the "MagCore® Genomic DNA Whole Blood Kit" automated system (Diatech).
Around 500 ng of extracted DNA were used in separated real time PCR reactions specific for the quantification of the total genomic and HIV-1 DNA, and the HIV-DNA 2-LTR circles, respectively. Both values were normalized as copies/10^6 cells according to β-globin gene quantification included in the first method. For each culture a ratio between 2-LTR/ total HIV-DNA circles was calculated and compared to the ratio obtained with the "no-drug" culture. Table 8. 2-LTR assay results

[10] = biological target: T1, HIV-1 integrase (Human immunodeficiency virus type 1 group M subtype B, UniProt P04585); assay: HIV-integrase assay (strand transfer kit); assay type: biochemical
T1 construct: Full-length recombinant HIV-1 integrase protein was loaded onto the DS DNA substrate; purchased Xpress Bio Co EZ-1700
Protocol: The integrase assay was performed using the HIV-1 integrase assay kit (Xpress Bio Co, catalog number EZ-1700, Thurmont, MD) according to the manufacturer's instructions. In this assay the streptavidin-coated 96-well plates were used and coated with a double stranded HIV-1 LTR U5 donor substrate (DS) DNA containing an end-labeled biotin. Full-length recombinant HIV-1 integrase protein was loaded onto the DS DNA substrate. After, the compounds were added in the concentration 5 - 1500 µM, and then a different double-stranded target substrate (TS) DNA containing a 3'-end modification was added to the reaction mixture. The HIV-1 integrase cleaved the terminal two bases from the exposed 3'-end of the HIV-1 LTR DS DNA and then catalyzed a strand-transfer recombination reaction to integrate the DS DNA into the TS DNA. The products of the reaction were detected colorimetrically using an HRP-labeled antibody directed against TS 3'-end modification. […] The percentage of DMSO was fixed at 2.5% v/v in all samples. The absorbance at 450 nm was recorded with an iMark™ Microplate Absorbance Reader (Bio-Rad Laboratories). The absorbance values were corrected from the mean blank absorbance (reaction buffer negative control). To calculate the IC50 values, the experimental data were fitted in a logarithm scale using Origin software (Dose response fitting).

Compound	Fold change 12231 (NNRTI) [1]	Fold change 11845 (INI) [2]	Fold change 12229 (NNRTI) [3]	Fold change 7400 (NRTI) [4]	Fold change 12465 (PI) [5]	Fold change 11808 (PI) [6]	Fold change 11842 (INI) [7]	Fold change 7401 (NRTI) [8]	2-LTR/HIV-DNA ratio drug vs no-drug [9]	IC50 [10] [µM]	fold increase in IN IC50 values in comparison to NC Inhibition IC50 values [10] [fold]	inhibition at 0.175 µM ([10]; read-out: % of inhibition (positive control)) [%]	titer / amounts of 2-LTR circles compared with "no-drug" culture ([9]; NL4-3, 24 hours)
O=C(NCC1CCCCC1)c1nc(-c2ccccn2)nc(O)c1O [Compound 1, N-(cyclohexylmethyl)-5,6-dihydroxy-2-(pyridin-2-yl)pyrimidine-4-carboxamide]	1.5	1.2	0.6	0.4	2.9	0.8	–	–	–	–	–	–	–
Cc1cccnc1-c1nc(O)c(O)c(C(=O)N[C@H](C)C2CCCCC2)n1 [Compound 23, (R)-N-(1-cyclohexylethyl)-5,6-dihydroxy-2-(3-methylpyridin-2-yl)pyrimidine-4-carboxamide]	2.8	1.2	1.0	0.7	2.3	5.1	8.6	1.4	0.5	–	–	–	–
C[C@@H](NC(=O)c1nc(-c2cc(Cl)ccn2)nc(O)c1O)C1CCCCC1 [Compound 26, (R)-2-(4-chloropyridin-2-yl)-N-(1-cyclohexylethyl)-5,6-dihydroxypyrimidine-4-carboxamide]	0.8	0.7	–	0.3	0.5	0.2	–	0.1	–	150	100	–	–
COc1ccnc(-c2nc(O)c(O)c(C(=O)N[C@H](C)C3CCCCC3)n2)c1 [Compound 28, (R)-N-(1-cyclohexylethyl)-5,6-dihydroxy-2-(4-methoxypyridin-2-yl)pyrimidine-4-carboxamide]	2.8	2.3	0.1	0.8	3.7	1.4	2.9	0.8	1.3	84	3.8	–	–
C[C@@H](NC(=O)c1nc(-c2nccc3ccccc23)nc(O)c1O)C1CCCCC1 [Compound 31, (R)-N-(1-cyclohexylethyl)-5,6-dihydroxy-2-(isoquinolin-1-yl)pyrimidine-4-carboxamide]	2.0	0.9	1.3	0.7	2.1	1.6	9.8	1.3	1.1	–	–	–	–
CCNCc1ccc(-c2nc(O)c(O)c(C(=O)N[C@H](C)C3CCCCC3)n2)nc1 [Compound 60, (R)-N-(1-cyclohexylethyl)-2-(5-((ethylamino)methyl)pyridin-2-yl)-5,6-dihydroxypyrimidine-4-carboxamide]	–	–	–	–	–	–	–	–	–	10	2.9	–	–
Cc1nnc(C(=O)NC(C)(C)c2nc(C(=O)NCc3ccc(F)cc3)c(O)c(=O)n2C)o1 [Raltegravir™, Raltegravir, reference compound]	–	–	–	–	–	–	–	–	2.9	–	–	≥ 97	three times higher
